Columns and labels:
occludin = test: Occludin western blotting of HREC lysate; assay type: cell-based, human; settings: HRECs, pretreatment 60 minutes, then 20 ng/mL VEGF 1 hour
Description: In FIG. 8b, confluent HRECs were pretreated with Sac0601 (10 μg/mL) for 60 minutes before treating with 20 ng/mL VEGF (1 hr). Then, cell lysate was subjected to western blotting using anti-occludin antibody.
(§1) Confluent HRECs were treated with 10 μg/mL Sac0601 (FIG. 8a, panel A) or Sac0504 (FIG. 8a, panel B) for 1 hour and then with 20 ng/mL. VEGF for 1 hour. Subsequently, the cells were fixed at room temperature for 20 minutes with 4% paraformaldehyde and permeabilized with 0:1% Triton X-100/PBS. Then, the cells were incubated in PBS blocking solution containing 5% normal goat serum and 0.05% Tween-20. The cells were then reacted with anti-occludin antibody (Zymed Laboratories Inc.). The result was visualized with fluorescein-conjugated anti-mouse antibody (Vector Lab.). Also, western blotting was conducted for the cell lysate. The cell lysate was fractionated with SDS-PAGE and then transferred to polyvinyl difluoride membrane. The blocked membrane was reacted with anti-occludin antibody (Zymed Laboratories Inc.) and the immune response band was visualized with the chemiluminescence reagent obtained from Amersham Biosciences, Inc.

HUVECs = test: VEGF-induced actin stress fibers in HUVECs, rhodamine phalloidin staining; assay type: cell-based, human; settings: 10 μg/mL pretreatment 1 hour, 20 ng/mL VEGF
Description: Confluent HUVECs were pretreated with the compounds (10 μg/mL) for 60 minutes before treating with 20 ng/mL VEGF (1 hr). The cells were then stained with rhodamine phalloidin.
It is known that the change in the actin structure of the cytoskeleton is closely related with the permeability of vascular endothelial cells. Increased permeability of vascular endothelial cells leads to increased formation of actin stress fibers and decrease of cortical actin ring structures. Based on this, the ability of inhibiting vascular endothelial permeability of the synthesized Rk1 derivatives was screened. Confluent HUVECs were pretreated with the synthesized compounds (10 μg/mL) for 1 hour before treating with 20 ng/mL VEGF (Upstate Biotechnology). Subsequently, the cells were fixed with 4% paraformaldehyde for 20 minutes at room temperature and washed 3 times with PBS (pH 7.4). Then, the cells were permeabilized with 0.1% Triton X-100/PBS and reacted with 0.1 mg/mL rhodamine phalloidin (Molecular Probes) for 1 hour. Then, the cells were observed under a fluorescence microscope (Olympus).

[1] = test system: diabetic mouse (DM) model; test: Retinal vascular permeability in diabetic mouse (DM) model, FITC-dextran; assay type: in vivo, C57/BL6 mouse; settings: streptozotocin diabetic mouse, 10 μg into the vitreous body, 24 hours
Description: 10 μg of Sac0601 or 10 μg of Sac0504 was injected into the vitreous body of one eye of a diabetic mouse. 24 hours after the injection, 100 μL of FITC-dextran (30 mg/mL in filtered […]) was injected into the left ventricle. Then, the retina was observed under an optical microscope (FIG. 11a) and the fluorescence intensity was quantified (FIG. 11b).
For in vivo analysis of the effect of the synthesized Rk1 derivatives on increased vascular permeability in diabetic retinopathy, a diabetic mouse (DM) model was made by injecting streptozotocin to C57/BL6 mouse. Sac 0601 or Sac 0504 (10 μg) was injected into the vitreous body of the mouse. 24 hours later, 40-kDa FITC-dextran (30 mg/mL in PBS, Sigma) was injected into the left ventricle. After waiting for about 2 minutes for circulation of the tracer, the eyes were taken out and fixed immediately in 4% PFA. Then, the retina was taken out and observed under an optical microscope.

HRECs [2] = test: VEGF-induced actin stress fibers in HRECs, rhodamine phalloidin staining; assay type: cell-based, human; settings: 10 μg/mL 1 hour, then 20 ng/mL VEGF 1 hour
Description: Confluent HRECs were treated with 10 μg/mL Sac0601 or Sac0504 for 1 hour and then with 20 ng/mL VEGF for 1 hour. Subsequently, the cells were fixed at room temperature for 20 minutes with 4% paraformaldehyde and washed 3 times with PBS (pH 7.4). Then, the cells were permeabilized with 0.1% Triton X-100/PBS and reacted with 0.1 mg/mL rhodamine phalloidin (Molecular Probes) for 1 hour. Then, the cells were observed under a fluorescence microscope (Olympus). […] The analysis of actin cytoskeleton was conducted also for the compounds synthesized in Synthesis Example 5. Both Sac0904 and Sac0902 exerted effects in a concentration-dependent manner on the actin cytoskeleton which is closely related with vascular permeability (FIG. 7c).

[3] = test system: human retinal endothelial cells (HRECs); test: Serum depletion-induced apoptosis of HRECs, MTT assay and cell morphology; assay type: cell-based; settings: for ability of inhibiting apoptosis (MTT assay): 48 hours after treatment; for ability of protecting retinal vascular endothelial cells from apoptosis induced by the removal of serum (MTT): serum-free medium, 0.1-10 μg/mL
Description: HRECs (3×10^4 cells/well) were seeded on a 24-well plate in M199 medium containing 20% fetal bovine serum. The next day, the cells were transferred to a medium containing […] Sac0601 (FIG. 4a) or 0.1-10 μg/mL Sac0504 (FIG. 4b). Cell viability was determined by MTT assay 48 hours later. FIGS. 5a-5c show the result of observing cell morphologies.
Human umbilical vein endothelial cells (HUVECs) and human retinal endothelial cells (HRECs) purchased from Cell Systems (USA) were seeded on a 100-mm culture dish in M199 medium (Life Technologies, USA) containing 20% (w/v) fetal bovine serum (FBS, HyClone, Canada), 100 units/mL penicillin (Invitrogen, USA), 100 μg/mL streptomycin (invitrogen, USA), 3 ng/mL basic fibroblast growth factor (bFGF, Upstate Biotechnology, USA) and 5 units/mL heparin and cultured in a 5% CO2 incubator at 37° C.
Also, HRECs were treated with the compounds synthesized in Synthesis Example 5 and MIT assay was performed 48 hours later in the same manner as described above.
Also, the acid compound wherein the methyl ester formed by the introduction of the ester group was hydrolyzed was synthesized to provide improved water solubility and activity. MYT assay was performed for the compounds synthesized in Synthesis Example 6 in the same manner as described above 48 hours after treatment.
Their ability of inhibiting apoptosis was confirmed again for HRECs. HRECs (3×10^4 cells/well) were seeded on a 24-well plate in M199 medium (1 mL) containing 20% fetal bovine serum, Next day, the cells were transferred to serum-free M199 medium containing 0.1-10 μg/ml. Sac060.1 (FIG. 4a) or 0.1-10 μg; mL Sac0504 (FIG. 4b). Cell viability was determined by MTF assay in the same manner as in Test Example 1.
Their ability of inhibiting apoptosis was confirmed again for HRECs.

HRECs [4] = test: Stability of tight junctions (TJs) at cell-cell contacts in VEGF-treated HRECs, anti-occludin immunostaining; assay type: cell-based, human; settings: 10 μg/mL 1 hour, then 20 ng/mL VEGF 1 hour
Description: In FIG. 8a, confluent HRECs were pretreated with Sac0601 (panel A in FIG. 8a) or Sac0504 (panel B in FIG. 8a) for 60 minutes before treating with 20 ng/ml. VEGF (1 hr). The cells were then stained with occludin antibody.
as §1

HRECs [5] = test: Permeability of HRECs on transwell filter, labelled sucrose; assay type: cell-based, human; settings: 10 μg/mL 60 minutes, with or without 20 ng/mL VEGF
Description: HRECs were seeded on a transwell filter. After reaching confluency, the cells were pretreated with Sac0601 (FIG. 10a) and Sac0504 (FIG. 10b) for 60 minutes before treating with 20 ng/ml. VEGF (1 hr). The permeability of HRECs was determined by measuring radiation of […] (1 μCi/μL) diffused below the transwell using a liquid scintillation counter.
The effect of Sac0601 and Sac0504 on vascular permeability was analyzed. HRECs were seeded on a transwell filter (Corning Costar). After reaching confluency, the cells were cultured in M199 medium containing 1% FBS for 3 hours and treated with 10 μg/mL. Sac0601 (FIG. 10a) or Sac0504 (FIG. 10b) for 60 minutes, with or without pretreatment with 20 ng/mL VEGF for 60 minutes. Then, [^3H]sucrose (1 μCi [0.037 MBq.]/μL or 50 μL (0.8 μCi [0.0296 MBq])/mL, Amersham Pharmacia) were added. 30 minutes later, radiation diffused below the transwell was measured using a liquid scintillation counter (Wallac, PerkinElmer). Measurement was made at least four locations.

Row | SMILES | occludin (western blotting) (occludin) | cortical actin ring structure (HUVECs) | formation of actin stress fibers induced by VEGF (HUVECs) | retinal vascular permeability induced in the DM [1] | formation of actin stress fibers induced by VEGF (HRECs [2]) | formation of cortical actin ring structures (HRECs [2]) | ability of inhibiting apoptosis (MTT assay) [3] | ability of protecting the vascular endothelial cells ([3]; incl. observation of cell morphologies) | ability of protecting retinal vascular endothelial cells from apoptosis induced by the removal of serum (MTT) [3] | redistribution of TJs into the cytoplasm or destabilizing at the cell membrane induced by VEGF (HRECs [4]) | permeability of the vascular endothelial cells (HRECs [5])
1 | COC(=O)CCC/C=C(\C)[C@H]1CCC2C3CC=C4C[C@@H](OC5C=C[C@H](OC(C)=O)[C@@H](COC(C)=O)O5)CC[C@]4(C)C3CC[C@@]21C (stereo partly shown) [Sac1004] | restores the activity of occludin decreased by VEGF | increased the cortical actin ring structure | inhibited the formation of actin stress fibers induced by VEGF | very effectively | inhibited the formation of actin stress fibers | increased the formation of cortical actin ring structures | improved ability of inhibiting apoptosis over SAC-0904 | improved ability of protecting the vascular endothelial cells over SAC-0904 | showed the ability of protecting the vascular endothelial cells from apoptosis induced by the removal of serum in a concentration-dependent manner | could be inhibited | inhibiting permeability of the vascular endothelial cells
2 | CC(=O)OCC1OC(OC2CCC3(C)C(=CCC4C3CCC3(C)C4CCC3C(C)(O)CCCC(C)C)C2)C=CC1OC(C)=O (stereo not shown) [Sac0902] | – | increased the cortical actin ring structure | inhibited the formation of actin stress fibers induced by VEGF | only limitedly | inhibited the formation of actin stress fibers | increased the formation of cortical actin ring structures | better ability of inhibiting apoptosis than Sac0601 | – | showed the ability of protecting the vascular endothelial cells from apoptosis induced by the removal of serum in a concentration-dependent manner | – | –
3 | CC(=O)OCC1OC(OC2CCC3(C)C(=CCC4C3CCC3(C)C(C(C)=CCCC(C)C)CCC43)C2)C=CC1OC(C)=O (stereo not shown) [Sac0904] | – | increased the cortical actin ring structure | inhibited the formation of actin stress fibers induced by VEGF | very effectively | inhibited the formation of actin stress fibers | increased the formation of cortical actin ring structures | better ability of inhibiting apoptosis than Sac0601 | – | showed the ability of protecting the vascular endothelial cells from apoptosis induced by the removal of serum in a concentration-dependent manner | – | –

From patent publication US8889840B2, “Vascular leakage inhibitor” (Industry-Academic Cooperation Foundation, Yonsei University, priority 2009, dated 2014)
